# Earlier results, collected in patent US5315013A, “Substituted pyrazole angiotensin II antagonists” (E. I. Du Pont de Nemours and Company, priority 1992, dated 1994).
# Assays:
# [1] = test system: AII
# [2] = test system: arterial pressure
structure (smiles),measurement,setting,value
CNCC(=O)N[C@@H](CCCN=C(N)N)C(=O)N[C@H](C(=O)N[C@@H](Cc1ccc(O)cc1)C(=O)N[C@H](C(=O)N[C@@H](Cc1cnc[nH]1)C(=O)N1CCC[C@H]1C(=O)N[C@@H](C)C(=O)O)C(C)C)C(C)C [Saralasin],effects of AII on the blood pressure blocked,[1]; pithed rats,blocks the effects of AII on the blood pressure of pithed rats
same,competitive antagonism of the actions of AII,[1]; potency in words,one of the most potent competitive antagonists of the actions of AII
same,lowering of arterial pressure,"[2]; mammals and man, elevated pressure dependent on circulating AII",demonstrated to lower arterial pressure in mammals and man
same,effect of oral doses,[2]; oral,oral doses being ineffective
same,pressor effects (agonistic character),[2]; pressure not sustained by AII,generally elicits pressor effects when the pressure is not sustained by AII
